Consider 49 substances from the OligoGym collection.

Oligonucleotides are written 5' to 3', each unit as a sugar letter and its base; * is a phosphorothioate linkage, no mark a phosphodiester; rarer units and linkages stand in square brackets, end groups in braces. Plain capitals give the bases only. d = 2'-deoxy (DNA); r = 2'-OH (RNA)

In one series the target is UBE2M. As to the kind of experiment: reporter assay of Huesken 2005. The note with it: siRNA. For orientation: A reporter such as luciferase makes a cellular process visible.
A further series has as its target UBE2C. As to the kind of experiment: reporter assay of Huesken 2005. As to conditions: siRNA.
Further: test concentration or dose not given here.

As for “sense rArGrUrCrCrUrUrArCrGrArUrArArArCrUrCrCdTdT / antisense rGrGrArGrUrUrUrArUrCrGrUrArArGrGrArCrUdGdG”, the normalised inhibition (eCFP-eYFP dual reporter) with UBE2M worked out at 60.6%.
“sense rArGrUrGrUrGrArGrArCrArArUrGrGrUrCrUrAdTdT / antisense rUrArGrArCrCrArUrUrGrUrCrUrCrArCrArCrUdTdC” came in with a normalised inhibition (eCFP-eYFP dual reporter) in the series with UBE2M of 92.1%.
Consider “sense rCrUrGrArArCrArArGrGrArGrGrCrCrGrCrArGdTdT / antisense rCrUrGrCrGrGrCrCrUrCrCrUrUrGrUrUrCrArGdTdG”, for which the normalised inhibition (eCFP-eYFP dual reporter) with UBE2M is 68.6%.
“sense rCrCrUrGrArUrGrArGrGrGrCrUrUrCrUrArCrAdTdT / antisense rUrGrUrArGrArArGrCrCrCrUrCrArUrCrArGrGdAdC” registered a normalised inhibition (eCFP-eYFP dual reporter) with UBE2M of 77.9%.
In the case of “sense rArGrCrArGrCrArArGrArArGrGrCrGrUrCrGrGdTdT / antisense rCrCrGrArCrGrCrCrUrUrCrUrUrGrCrUrGrCrUdGdC”, the normalised inhibition (eCFP-eYFP dual reporter) with UBE2M came to 53%.
The same measure, in the same setting: for “sense rArGrGrCrCrGrCrArGrArGrGrUrCrCrUrGrCrAdTdT / antisense rUrGrCrArGrGrArCrCrUrCrUrGrCrGrGrCrCrUdCdC” the value was 65.4%.
Regarding “sense rGrArUrGrArGrGrGrCrUrUrCrUrArCrArArGrAdTdT / antisense rUrCrUrUrGrUrArGrArArGrCrCrCrUrCrArUrCdAdG”, the normalised inhibition (eCFP-eYFP dual reporter) with UBE2M came out at 82.7%.
“sense rUrArArGrGrUrGrGrGrCrCrArGrGrGrUrUrArCdTdT / antisense rGrUrArArCrCrCrUrGrGrCrCrCrArCrCrUrUrAdAdA”: the normalised inhibition (eCFP-eYFP dual reporter) in the series with UBE2M came to 69.9%.
Turning to “sense rCrUrGrCrArGrArArCrArArCrCrGrGrCrGrGrCdTdT / antisense rGrCrCrGrCrCrGrGrUrUrGrUrUrCrUrGrCrArGdGdA”, the normalised inhibition (eCFP-eYFP dual reporter) with UBE2M came to 64.1%.
The same measure, in the same setting: the result for “sense rGrGrUrCrUrArUrCrArCrCrCrCrArArCrArUrUdTdT / antisense rArArUrGrUrUrGrGrGrGrUrGrArUrArGrArCrCdAdT” reads 79.7%.
The substance “sense rArArCrGrUrGrCrArGrCrGrCrUrCrCrArUrGrCdTdT / antisense rGrCrArUrGrGrArGrCrGrCrUrGrCrArCrGrUrUdCdT” yielded a normalised inhibition (eCFP-eYFP dual reporter) with UBE2M of 61.2%.
“sense rGrArCrArArUrGrGrUrCrUrArUrCrArCrCrCrCdTdT / antisense rGrGrGrGrUrGrArUrArGrArCrCrArUrUrGrUrCdTdC” displayed a normalised inhibition (eCFP-eYFP dual reporter) with UBE2M of 61.8%.
In the case of “sense rArCrGrArUrArArArCrUrCrCrArUrArArUrUrUdTdT / antisense rArArArUrUrArUrGrGrArGrUrUrUrArUrCrGrUdAdA”, the normalised inhibition (eCFP-eYFP dual reporter) in the series with UBE2M was determined as 82.2%.
Same read-out and setting: the result for “sense rGrCrArGrCrArGrCrArArGrArArGrGrCrGrUrCdTdT / antisense rGrArCrGrCrCrUrUrCrUrUrGrCrUrGrCrUrGrCdCdC” reads 61%; that for “sense rArGrCrUrGrArArCrCrUrGrCrCrCrArArGrArCdTdT / antisense rGrUrCrUrUrGrGrGrCrArGrGrUrUrCrArGrCrUdCdG”, 71.8%.
Take “sense rGrGrGrUrGrGrCrUrArCrArUrCrGrGrCrUrCrCdTdT / antisense rGrGrArGrCrCrGrArUrGrUrArGrCrCrArCrCrCdCdG”: the normalised inhibition (eCFP-eYFP dual reporter) with UBE2M is 58.1%.
On to “sense rGrGrCrGrGrCrUrGrUrUrUrGrArGrCrArGrArAdTdT / antisense rUrUrCrUrGrCrUrCrArArArCrArGrCrCrGrCrCdGdG”, for which the normalised inhibition (eCFP-eYFP dual reporter) with UBE2M is 76.6%.
With “sense rArGrGrArGrGrArGrGrArGrUrCrGrGrCrGrGrGdTdT / antisense rCrCrCrGrCrCrGrArCrUrCrCrUrCrCrUrCrCrUdTdC”, the normalised inhibition (eCFP-eYFP dual reporter) in the series with UBE2M was found to be 41.7%.
Regarding “sense rGrCrCrCrArCrArGrUrGrArArGrUrUrCrCrUrCdTdT / antisense rGrArGrGrArArCrUrUrCrArCrUrGrUrGrGrGrCdGdC”, the normalised inhibition (eCFP-eYFP dual reporter) with UBE2C was 46.7%.
“sense rArGrUrUrCrCrUrCrArCrGrCrCrCrUrGrCrUrAdTdT / antisense rUrArGrCrArGrGrGrCrGrUrGrArGrGrArArCrUdTdC” displayed a normalised inhibition (eCFP-eYFP dual reporter) with UBE2C of 84.4%.
On the same count and under the same terms, the result for “sense rGrArUrGrUrCrArGrGrArCrCrArUrUrCrUrGrCdTdT / antisense rGrCrArGrArArUrGrGrUrCrCrUrGrArCrArUrCdAdT” reads 48.8%; that for “sense rArUrGrCrUrGrCrCrGrArGrCrUrCrUrGrGrArAdTdT / antisense rUrUrCrCrArGrArGrCrUrCrGrGrCrArGrCrArUdGdT”, 84.5%.
Still for that read-out and setting: for “sense rCrGrCrUrArGrArGrUrUrCrCrCrCrArGrUrGrGdTdT / antisense rCrCrArCrUrGrGrGrGrArArCrUrCrUrArGrCrGdAdG” the value was 86.9%.
Same read-out and setting: for “sense rArCrArGrUrArUrArUrGrArArGrArCrCrUrGrAdTdT / antisense rUrCrArGrGrUrCrUrUrCrArUrArUrArCrUrGrUdTdC” the value was 88.1%; for “sense rArUrGrGrArGrCrArGrCrUrGrGrArArCrArGrUdTdT / antisense rArCrUrGrUrUrCrCrArGrCrUrGrCrUrCrCrArUdGdG”, 84.5%; for “sense rArGrGrArGrArArCrCrCrArArCrArUrUrGrArUdTdT / antisense rArUrCrArArUrGrUrUrGrGrGrUrUrCrUrCrCrUdAdG”, 94.2%.
As for “sense rUrArUrGrArUrGrUrCrArGrGrArCrCrArUrUrCdTdT / antisense rGrArArUrGrGrUrCrCrUrGrArCrArUrCrArUrAdCdA”, the normalised inhibition (eCFP-eYFP dual reporter) with UBE2C is 32.1%.
Take “sense rArGrArCrCrUrGrArGrGrUrArUrArArGrCrUrCdTdT / antisense rGrArGrCrUrUrArUrArCrCrUrCrArGrGrUrCrUdTdC”: the normalised inhibition (eCFP-eYFP dual reporter) in the series with UBE2C came to 71.7%.
Still for that read-out and setting: for “sense rArCrArArUrGrCrGrCrCrCrArCrArGrUrGrArAdTdT / antisense rUrUrCrArCrUrGrUrGrGrGrCrGrCrArUrUrGrUdAdA” the value was 93.7%; for “sense rArCrCrUrGrArGrGrUrArUrArArGrCrUrCrUrCdTdT / antisense rGrArGrArGrCrUrUrArUrArCrCrUrCrArGrGrUdCdT”, 80.9%.
Regarding “sense rArCrCrCrUrUrArCrArArUrGrCrGrCrCrCrArCdTdT / antisense rGrUrGrGrGrCrGrCrArUrUrGrUrArArGrGrGrUdAdG”, in the series with UBE2C, the normalised inhibition (eCFP-eYFP dual reporter) was 47.4%.
The same measure, in the same setting: for “sense rGrArArCrArCrArCrArUrGrCrUrGrCrCrGrArGdTdT / antisense rCrUrCrGrGrCrArGrCrArUrGrUrGrUrGrUrUrCdAdA” the value was 89.6%; for “sense rGrArArGrUrUrCrCrUrCrArCrGrCrCrCrUrGrCdTdT / antisense rGrCrArGrGrGrCrGrUrGrArGrGrArArCrUrUrCdAdC”, 40.9%.
Same read-out and setting: the result for “sense rCrArUrUrCrUrGrCrUrCrUrCrCrArUrCrCrArGdTdT / antisense rCrUrGrGrArUrGrGrArGrArGrCrArGrArArUrGdGdT” reads 79.7%.
Substance “sense rArGrArGrUrUrCrCrCrCrArGrUrGrGrCrUrArCdTdT / antisense rGrUrArGrCrCrArCrUrGrGrGrGrArArCrUrCrUdAdG” yielded a normalised inhibition (eCFP-eYFP dual reporter) with UBE2C of 87%.
Turning to “sense rCrCrCrCrArGrUrGrGrCrUrArCrCrCrUrUrArCdTdT / antisense rGrUrArArGrGrGrUrArGrCrCrArCrUrGrGrGrGdAdA”, the normalised inhibition (eCFP-eYFP dual reporter) with UBE2C came out at 67.7%.
In turn, “sense rArCrCrArUrCrCrArUrGrGrArGrCrArGrCrUrGdTdT / antisense rCrArGrCrUrGrCrUrCrCrArUrGrGrArUrGrGrUdCdC” registered a normalised inhibition (eCFP-eYFP dual reporter) with UBE2C of 62.1%.
In the case of “sense rUrGrCrCrUrGrGrArCrArUrCrCrUrGrArArGrGdTdT / antisense rCrCrUrUrCrArGrGrArUrGrUrCrCrArGrGrCrAdTdA”, the normalised inhibition (eCFP-eYFP dual reporter) with UBE2C is 49.2%.
In the series with UBE2C, “sense rArCrArUrCrCrUrGrArArGrGrArArArArGrUrGdTdT / antisense rCrArCrUrUrUrUrCrCrUrUrCrArGrGrArUrGrUdCdC” showed a normalised inhibition (eCFP-eYFP dual reporter) of 46.2%.
The substance “sense rUrArGrArGrUrUrCrCrCrCrArGrUrGrGrCrUrAdTdT / antisense rUrArGrCrCrArCrUrGrGrGrGrArArCrUrCrUrAdGdC” showed a normalised inhibition (eCFP-eYFP dual reporter) with UBE2C of 67.2%.
In turn, “sense rArGrUrGrGrCrUrArCrCrCrUrUrArCrArArUrGdTdT / antisense rCrArUrUrGrUrArArGrGrGrUrArGrCrCrArCrUdGdG” returned a normalised inhibition (eCFP-eYFP dual reporter) in the series with UBE2C of 76.9%.
Same read-out and setting: the result for “sense rGrGrUrArUrArArGrCrUrCrUrCrGrCrUrArGrAdTdT / antisense rUrCrUrArGrCrGrArGrArGrCrUrUrArUrArCrCdTdC” reads 91.3%; that for “sense rCrArGrGrArCrCrArUrUrCrUrGrCrUrCrUrCrCdTdT / antisense rGrGrArGrArGrCrArGrArArUrGrGrUrCrCrUrGdAdC”, 45.4%; that for “sense rUrGrCrCrCrUrGrUrArUrGrArUrGrUrCrArGrGdTdT / antisense rCrCrUrGrArCrArUrCrArUrArCrArGrGrGrCrAdGdA”, 50.8%.
In the series with UBE2C, “sense rCrCrCrUrGrCrUrArUrCrArCrCrCrCrArArCrGdTdT / antisense rCrGrUrUrGrGrGrGrUrGrArUrArGrCrArGrGrGdCdG” displayed a normalised inhibition (eCFP-eYFP dual reporter) of 53.1%.
For “sense rUrGrGrUrCrUrGrCrCrCrUrGrUrArUrGrArUrGdTdT / antisense rCrArUrCrArUrArCrArGrGrGrCrArGrArCrCrAdCdT”, the normalised inhibition (eCFP-eYFP dual reporter) in the series with UBE2C was 28.6%.
Turning to “sense rCrArGrUrArUrArUrGrArArGrArCrCrUrGrArGdTdT / antisense rCrUrCrArGrGrUrCrUrUrCrArUrArUrArCrUrGdTdT”, the normalised inhibition (eCFP-eYFP dual reporter) in the series with UBE2C was 82.2%.
On the same count and under the same terms, the result for “sense rGrCrCrUrGrGrArCrArUrCrCrUrGrArArGrGrAdTdT / antisense rUrCrCrUrUrCrArGrGrArUrGrUrCrCrArGrGrCdAdT” reads 85.8%; that for “sense rArCrArCrArCrArUrGrCrUrGrCrCrGrArGrCrUdTdT / antisense rArGrCrUrCrGrGrCrArGrCrArUrGrUrGrUrGrUdTdC”, 78%.
